Source: ChEMBL document CHEMBL4665703, “Structurally Diverse Indole Alkaloids with Vasorelaxant Activity from Melodinus hemsleyanus” (J Nat Prod, 2020)
Where a name gives a salt, the structure may show the parent alone.

Tested on: Aorta
Assay: Vasorelaxant activity in Sprague-Dawley rat aortic artery assessed as reduction in phenylephrine-induced contractions
Type: functional, tissue-based

Row | EC50 [µM] | SMILES
1 | 2.8 | CC[C@]12C=CCN3CCc4c(n(c5cc(O)ccc45)[C@@](O)(C(=O)OC)C1)[C@@H]32
2 | > 10 | COC(=O)[C@@H](C)[C@]12C=CCN3CC[C@@]4(c5ccccc5NC(=O)[C@H]4C1)[C@@H]32
3 | > 10 | CC[C@]12CC(=O)N3CC[C@]4(C(=C(C(=O)OC)C1)Nc1cc(O)ccc14)[C@@H]32
4 | > 10 | CC[C@@]12CC(C(=O)OC)=C3Nc4cc(O)ccc4[C@@]34CCN(C(=O)[C@H]3O[C@H]31)[C@@H]24
5 | 1.9 | CC[C@]12C=CCN3CCc4c(n(c5ccccc45)[C@@](O)(C(=O)OC)C1)[C@@H]32
6 | 0.8 | CC[C@]12C=CC(=O)N3CC[C@]4(C(=C(C(=O)OC)C1)Nc1ccccc14)[C@@H]32
7 | 2.4 | CC[C@]12C=CCN3CCc4c(n(c5cc(O)ccc45)[C@](O)(C(=O)OC)C1)[C@@H]32
8 | 2.2 | CC[C@]12C=CCN3CCc4c(n(c5cc(OC)ccc45)[C@@](O)(C(=O)OC)C1)[C@@H]32
9 | > 10 | COC(=O)[C@@H]1C[C@@]23CCC[N+]4([O-])CC[C@@]5(c6ccccc6N[C@]15CC2)[C@H]34 (some centres not stated)
10 | 1.9 | CC[C@]12C=CCN3CCc4c(n(c5cc(OC)ccc45)[C@](O)(C(=O)OC)C1)[C@@H]32
11 | 3.8 | CC[C@]12C=CCN3CCc4c(n(c5ccccc45)[C@](O)(C(=O)OC)C1)[C@@H]32
12 | 0.1 | Cc1ccc(N(CC2=NCCN2)c2cccc(O)c2)cc1 [PHENTOLAMINE MESYLATE]

Further lines, the molecule ahead of its results:

Row | SMILES | EC50 [µM]
13 | CC[C@]12CCCN3CCc4c(n(c5ccccc45)[C@@H](OC)C1)[C@@H]32 | > 10
14 | C[C@@H]1C(=O)O[C@]23N4CC=C[C@]12C[C@@H]1C(=O)Nc2ccccc2[C@@]13CC4 | > 10
15 | C[C@@H]1C(=O)[C@@]23C[C@@]14C=CCN1CC[C@@]2(c2ccccc2NC3=O)[C@@H]14 | > 10
16 | C[C@H]1C(=O)[C@@]23C[C@@]14C=CCN1CC[C@@]2(c2ccccc2NC3=O)[C@@H]14 | > 10
17 | CC[C@]12CCC[N+]3([O-])CC[C@]4(C(=C(C(=O)OC)C1)Nc1cc(O)ccc14)[C@H]23 (some centres not stated) | > 10
18 | CC[C@]12CCCN3CC[C@]4(C(=C(C(=O)OC)C1)Nc1cc(O)ccc14)[C@@H]32 | > 10
19 | COC(=O)[C@@H]1C[C@@]23CCCN4CC[C@@]5(c6ccccc6N[C@]15CC2)[C@@H]43 | > 10
20 | C[C@H](O)[C@@]12C[C@@H](C(N)=O)c3[nH]c4ccccc4c3CCN(C[C@H](O)[C@H]1O)C2=O | > 10
21 | CC[C@]12C=CCN3CC[C@]4(C(=C(C(=O)OC)C1)Nc1ccccc14)[C@@H]32 [TABERSONINE] | > 10
22 | CC[C@]12CCCN3CCc4c(n(c5ccccc45)[C@@H](O)C1)[C@@H]32 [VINCANOL] | > 10
